How the values were obtained:
P300 = P300 (Homo sapiens, UniProt Q09472); assay: Immunoblotting of P300 protein levels in LNCaP or 22RV1 cells; assay type: cell-based; design: LNCaP or 22RV1 cells that express CBP/P300 proteins were treated with GNE-781 or the bivalent compounds; endogenous in cells; host or cells: LNCaP (clone FGC) or 22RV1 cells; conditions: percentage of inhibition of p300 at 10 nM (Table 3); read-out: Degradation (10 nM)
In short: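 P300/CBP levels quantified by chemiluminescent immunoblot band densitometry, normalized against tubulin or vinculin loading controls. Lysates came from LNCaP or 22RV1 cells exposed to compounds or DMSO vehicle for indicated times.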

LNCaP cells = assay: LNCaP cell viability assay (CellTiter-Glo); assay type: cell-based; conditions: Homo sapiens, 72 h; LNCaP prostate cancer cell viability inhibition, 3 days, CellTiter-Glo (Table 3)
In short: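 Three-day treatment of LNCaP cells (5000 per well) across a 12-point, 3-fold dilution series starting at 10 μM. ATP luminescence (CellTiter-Glo) relative to untreated controls gave dose-response curves fitted nonlinearly for IC50.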

P300, sequence (Q09472 whole entry): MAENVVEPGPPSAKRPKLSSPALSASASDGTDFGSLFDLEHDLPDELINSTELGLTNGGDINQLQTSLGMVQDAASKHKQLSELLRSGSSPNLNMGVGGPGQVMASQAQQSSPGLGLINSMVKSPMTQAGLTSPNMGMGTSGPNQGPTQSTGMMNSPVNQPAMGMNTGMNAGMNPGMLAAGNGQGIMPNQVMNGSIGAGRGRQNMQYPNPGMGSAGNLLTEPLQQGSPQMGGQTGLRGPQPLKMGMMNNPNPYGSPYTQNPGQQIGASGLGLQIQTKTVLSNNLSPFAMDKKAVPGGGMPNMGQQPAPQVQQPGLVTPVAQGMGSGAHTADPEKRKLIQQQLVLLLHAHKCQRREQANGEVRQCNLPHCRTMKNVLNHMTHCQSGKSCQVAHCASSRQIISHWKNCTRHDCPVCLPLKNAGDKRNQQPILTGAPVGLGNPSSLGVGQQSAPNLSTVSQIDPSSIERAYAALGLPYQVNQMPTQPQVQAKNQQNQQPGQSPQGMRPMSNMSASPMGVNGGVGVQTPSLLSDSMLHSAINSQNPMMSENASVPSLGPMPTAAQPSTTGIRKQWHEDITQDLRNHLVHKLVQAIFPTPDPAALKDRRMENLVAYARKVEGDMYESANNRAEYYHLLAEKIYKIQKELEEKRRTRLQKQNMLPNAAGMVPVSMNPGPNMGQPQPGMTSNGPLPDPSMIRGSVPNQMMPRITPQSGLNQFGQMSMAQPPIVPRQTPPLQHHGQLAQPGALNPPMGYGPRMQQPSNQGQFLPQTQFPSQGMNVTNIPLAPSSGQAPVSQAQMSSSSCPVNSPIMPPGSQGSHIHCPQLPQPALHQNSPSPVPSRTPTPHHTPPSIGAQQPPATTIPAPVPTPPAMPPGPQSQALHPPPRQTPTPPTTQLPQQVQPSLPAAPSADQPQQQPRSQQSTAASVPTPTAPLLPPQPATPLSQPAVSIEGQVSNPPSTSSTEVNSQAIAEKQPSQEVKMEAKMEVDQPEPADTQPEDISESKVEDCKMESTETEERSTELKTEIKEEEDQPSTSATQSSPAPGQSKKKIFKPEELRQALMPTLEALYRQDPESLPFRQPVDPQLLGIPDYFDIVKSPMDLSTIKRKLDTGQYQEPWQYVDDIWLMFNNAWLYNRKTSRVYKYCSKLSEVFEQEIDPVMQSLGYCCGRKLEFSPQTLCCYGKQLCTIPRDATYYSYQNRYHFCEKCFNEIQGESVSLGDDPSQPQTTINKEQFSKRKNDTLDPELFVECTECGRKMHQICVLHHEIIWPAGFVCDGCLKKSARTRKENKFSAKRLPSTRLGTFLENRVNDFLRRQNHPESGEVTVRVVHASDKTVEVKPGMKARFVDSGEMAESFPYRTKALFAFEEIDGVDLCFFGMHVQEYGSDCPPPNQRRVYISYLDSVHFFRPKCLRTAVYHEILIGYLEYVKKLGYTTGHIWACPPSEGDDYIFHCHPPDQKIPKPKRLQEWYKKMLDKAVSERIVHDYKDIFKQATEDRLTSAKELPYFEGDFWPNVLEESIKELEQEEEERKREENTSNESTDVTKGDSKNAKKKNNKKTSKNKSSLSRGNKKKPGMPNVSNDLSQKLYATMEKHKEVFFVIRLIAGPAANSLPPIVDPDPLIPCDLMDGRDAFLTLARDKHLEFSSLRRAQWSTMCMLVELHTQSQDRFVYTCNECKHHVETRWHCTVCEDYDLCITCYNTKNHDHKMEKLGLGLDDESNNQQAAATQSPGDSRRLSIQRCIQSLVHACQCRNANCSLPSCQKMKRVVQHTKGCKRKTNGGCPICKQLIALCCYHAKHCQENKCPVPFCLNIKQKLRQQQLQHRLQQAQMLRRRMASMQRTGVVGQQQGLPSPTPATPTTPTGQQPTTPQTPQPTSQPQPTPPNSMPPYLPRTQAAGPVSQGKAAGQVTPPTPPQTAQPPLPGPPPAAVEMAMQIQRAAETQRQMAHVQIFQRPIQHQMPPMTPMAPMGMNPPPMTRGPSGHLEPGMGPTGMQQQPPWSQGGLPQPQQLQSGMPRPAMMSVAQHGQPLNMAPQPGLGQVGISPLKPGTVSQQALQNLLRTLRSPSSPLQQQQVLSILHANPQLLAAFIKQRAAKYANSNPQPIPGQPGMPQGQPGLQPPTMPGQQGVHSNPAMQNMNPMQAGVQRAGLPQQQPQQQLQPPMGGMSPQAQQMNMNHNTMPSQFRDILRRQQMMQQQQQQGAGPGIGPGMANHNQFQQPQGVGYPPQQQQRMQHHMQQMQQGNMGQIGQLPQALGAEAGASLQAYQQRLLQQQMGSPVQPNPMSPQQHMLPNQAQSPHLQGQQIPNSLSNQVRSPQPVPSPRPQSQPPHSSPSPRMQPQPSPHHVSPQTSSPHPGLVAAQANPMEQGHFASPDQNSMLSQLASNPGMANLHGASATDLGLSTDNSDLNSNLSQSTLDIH

Structure (SMILES)	inhibition at 0.01 µM (P300) [%]	IC50 (LNCaP cells) [nM]
CNC(=O)N1CCc2c(c(N3CCCc4cc(-c5cnn(CC(=O)NCCOCCOCCOCCOCCC(=O)N[C@H](C(=O)N6C[C@H](O)C[C@H]6C(=O)NCc6ccc(-c7scnc7C)cc6)C(C)(C)C)c5)c(C(F)F)cc43)nn2C2CCOCC2)C1 [P-078, 3-(7-(Difluoromethyl)-6-(1-((S)-20-((2S,4R)-4-hydroxy-2-((4-(4-methylthiazol-5-yl)benzyl)carbamoyl)pyrrolidine-1-carbonyl)-21,21-dimethyl-2,18-dioxo-6,9,12,15-tetraoxa-3,19-diazadocosyl)-1H-pyrazol-4-yl)-3,4-dihydroquinolin-1(2H)-yl)-N-methyl-1-(tetrahydro-2H-pyran-4-yl)-1,4,6,7-tetrahydro-5H-pyrazolo[4,3-c]pyridine-5-carboxamide]	< 20	> 10000
CNC(=O)N1CCc2c(c(N3CCCc4cc(-c5cnn(CC(=O)NCCCC(=O)N[C@H](C(=O)N6C[C@H](O)C[C@H]6C(=O)NCc6ccc(-c7scnc7C)cc6)C(C)(C)C)c5)c(C(F)F)cc43)nn2C2CCOCC2)C1 [P-079, 3-(7-(Difluoromethyl)-6-(1-(2-((4-(((S)-1-((2S,4R)-4-hydroxy-2-((4-(4-methylthiazol-5-yl)benzyl)carbamoyl)pyrrolidin-1-yl)-3,3-dimethyl-1-oxobutan-2-yl)amino)-4-oxobutyl)amino)-2-oxoethyl)-1H-pyrazol-4-yl)-3,4-dihydroquinolin-1(2H)-yl)-N-methyl-1-(tetrahydro-2H-pyran-4-yl)-1,4,6,7-tetrahydro-5H-pyrazolo[4,3-c]pyridine-5-carboxamide]	< 20	> 10000
CNC(=O)N1CCc2c(c(N3CCCc4cc(-c5cnn(CC(=O)NCCCCCCC(=O)N[C@H](C(=O)N6C[C@H](O)C[C@H]6C(=O)NCc6ccc(-c7scnc7C)cc6)C(C)(C)C)c5)c(C(F)F)cc43)nn2C2CCOCC2)C1 [P-080, 3-(7-(Difluoromethyl)-6-(1-(2-((7-(((S)-1-((2S,4R)-4-hydroxy-2-((4-(4-methylthiazol-5-yl)benzyl)carbamoyl)pyrrolidin-1-yl)-3,3-dimethyl-1-oxobutan-2-yl)amino)-7-oxoheptyl)amino)-2-oxoethyl)-1H-pyrazol-4-yl)-3,4-dihydroquinolin-1(2H)-yl)-N-methyl-1-(tetrahydro-2H-pyran-4-yl)-1,4,6,7-tetrahydro-5H-pyrazolo[4,3-c]pyridine-5-carboxamide]	< 20	> 10000
CNC(=O)N1CCc2c(c(N3CCCc4cc(-c5cnn(CC(=O)NCCCCCCCCC(=O)N[C@H](C(=O)N6C[C@H](O)C[C@H]6C(=O)NCc6ccc(-c7scnc7C)cc6)C(C)(C)C)c5)c(C(F)F)cc43)nn2C2CCOCC2)C1 [P-081, 3-(7-(Difluoromethyl)-6-(1-(2-((9-(((S)-1-((2S,4R)-4-hydroxy-2-((4-(4-methylthiazol-5-yl)benzyl)carbamoyl)pyrrolidin-1-yl)-3,3-dimethyl-1-oxobutan-2-yl)amino)-9-oxononyl)amino)-2-oxoethyl)-1H-pyrazol-4-yl)-3,4-dihydroquinolin-1(2H)-yl)-N-methyl-1-(tetrahydro-2H-pyran-4-yl)-1,4,6,7-tetrahydro-5H-pyrazolo[4,3-c]pyridine-5-carboxamide]	< 20	469
CNC(=O)N1CCc2c(c(N3CCCc4cc(-c5cnn(C)c5)c(C(F)F)cc43)nn2C2CCN(C(=O)CCCCCOc3cccc4c3C(=O)N(C3CCC(=O)NC3=O)C4=O)CC2)C1 (stereo not shown) [P-084, 3-(7-(Difluoromethyl)-6-(1-methyl-1H-pyrazol-4-yl)-3,4-dihydroquinolin-1(2H)-yl)-1-(1-(6-((2-(2,6-dioxopiperidin-3-yl)-1,3-dioxoisoindolin-4-yl)oxy)hexanoyl)piperidin-4-yl)-N-methyl-1,4,6,7-tetrahydro-5H-pyrazolo[4,3-c]pyridine-5-carboxamide]	50 to 80	13.1
CNC(=O)N1CCc2c(c(N3CCCc4cc(-c5cnn(C)c5)c(C(F)F)cc43)nn2C2CCN(C(=O)CCCCCCc3cccc4c3C(=O)N(C3CCC(=O)NC3=O)C4=O)CC2)C1 (stereo not shown) [P-085, 3-(7-(difluoromethyl)-6-(1-methyl-1H-pyrazol-4-yl)-3,4-dihydroquinolin-1(2H)-yl)-1-(1-(7-(2-(2,6-dioxopiperidin-3-yl)-1,3-dioxoisoindolin-4-yl)heptanoyl)piperidin-4-yl)-N-methyl-1,4,6,7-tetrahydro-5H-pyrazolo[4,3-c]pyridine-5-carboxamide]	> 80	3.8
CNC(=O)N1CCc2c(c(N3CCCc4cc(-c5cnn(C)c5)c(C(F)F)cc43)nn2C2CCN(C(=O)CCCCCCc3cccc4c3CN(C3CCC(=O)NC3=O)C4=O)CC2)C1 (stereo not shown) [P-086, 3-(7-(Difluoromethyl)-6-(1-methyl-1H-pyrazol-4-yl)-3,4-dihydroquinolin-1(2H)-yl)-1-(1-(7-(2-(2,6-dioxopiperidin-3-yl)-1-oxoisoindolin-4-yl)heptanoyl)piperidin-4-yl)-N-methyl-1,4,6,7-tetrahydro-5H-pyrazolo[4,3-c]pyridine-5-carboxamide]	50 to 80	21.1

More lines, now with the values ahead:

inhibition at 0.01 µM (P300) [%]	IC50 (LNCaP cells) [nM]	Structure (SMILES)
20 to 50	12.6	CNC(=O)N1CCc2c(c(N3CCCc4cc(-c5cnn(C)c5)c(C(F)F)cc43)nn2C2CCN(C(=O)CCCCCCc3cccc4c3C(=O)N(C3CCC(=O)NC3=O)C4)CC2)C1 (stereo not shown) [P-087, 3-(7-(Difluoromethyl)-6-(1-methyl-1H-pyrazol-4-yl)-3,4-dihydroquinolin-1(2H)-yl)-1-(1-(7-(2-(2,6-dioxopiperidin-3-yl)-3-oxoisoindolin-4-yl)heptanoyl)piperidin-4-yl)-N-methyl-1,4,6,7-tetrahydro-5H-pyrazolo[4,3-c]pyridine-5-carboxamide]
> 80	5.5	CNC(=O)N1CCc2c(c(N3CCCc4cc(-c5cnn(C)c5)c(C(F)F)cc43)nn2C2CCN(C(=O)CCCCCOc3cccc4c3CN(C3CCC(=O)NC3=O)C4=O)CC2)C1 (stereo not shown) [P-088, 3-(7-(difluoromethyl)-6-(1-methyl-1H-pyrazol-4-yl)-3,4-dihydroquinolin-1(2H)-yl)-1-(1-(6-((2-(2,6-dioxopiperidin-3-yl)-1-oxoisoindolin-4-yl)oxy)hexanoyl)piperidin-4-yl)-N-methyl-1,4,6,7-tetrahydro-5H-pyrazolo[4,3-c]pyridine-5-carboxamide]
< 20	78.5	CNC(=O)N1CCc2c(c(N3CCCc4cc(-c5cnn(C)c5)c(C(F)F)cc43)nn2C2CCN(C(=O)CCCCCOc3cccc4c3C(=O)N(C3CCC(=O)NC3=O)C4)CC2)C1 (stereo not shown) [P-089, 3-(7-(Difluoromethyl)-6-(1-methyl-1H-pyrazol-4-yl)-3,4-dihydroquinolin-1(2H)-yl)-1-(1-(6-((2-(2,6-dioxopiperidin-3-yl)-3-oxoisoindolin-4-yl)oxy)hexanoyl)piperidin-4-yl)-N-methyl-1,4,6,7-tetrahydro-5H-pyrazolo[4,3-c]pyridine-5-carboxamide]
> 80	1	CNC(=O)N1CCc2c(c(N3CCCc4cc(-c5cnn(C)c5)c(C(F)F)cc43)nn2C2CCN(CCCCCCNc3cccc4c3C(=O)N(C3CCC(=O)NC3=O)C4=O)CC2)C1 (stereo not shown) [P-090, 3-(7-(difluoromethyl)-6-(1-methyl-1H-pyrazol-4-yl)-3,4-dihydroquinolin-1(2H)-yl)-1-(1-(6-((2-(2,6-dioxopiperidin-3-yl)-1,3-dioxoisoindolin-4-yl)amino)hexyl)piperidin-4-yl)-N-methyl-1,4,6,7-tetrahydro-5H-pyrazolo[4,3-c]pyridine-5-carboxamide]
> 80	2.1	CNC(=O)N1CCc2c(c(N3CCCc4cc(-c5cnn(C)c5)c(C(F)F)cc43)nn2C2CCN(CCCCCCOc3cccc4c3C(=O)N(C3CCC(=O)NC3=O)C4=O)CC2)C1 (stereo not shown) [P-091, 3-(7-(difluoromethyl)-6-(1-methyl-1H-pyrazol-4-yl)-3,4-dihydroquinolin-1(2H)-yl)-1-(1-(6-((2-(2,6-dioxopiperidin-3-yl)-1,3-dioxoisoindolin-4-yl)oxy)hexyl)piperidin-4-yl)-N-methyl-1,4,6,7-tetrahydro-5H-pyrazolo[4,3-c]pyridine-5-carboxamide]
20 to 50	56.5	CNC(=O)N1CCc2c(c(N3CCCc4cc(-c5cnn(C)c5)c(C(F)F)cc43)nn2C2CCN(C(=O)CCCCC#Cc3cccc4c3C(=O)N(C3CCC(=O)NC3=O)C4=O)CC2)C1 (stereo not shown) [P-092, 3-(7-(Difluoromethyl)-6-(1-methyl-1H-pyrazol-4-yl)-3,4-dihydroquinolin-1(2H)-yl)-1-(1-(7-(2-(2,6-dioxopiperidin-3-yl)-1,3-dioxoisoindolin-4-yl)hept-6-ynoyl)piperidin-4-yl)-N-methyl-1,4,6,7-tetrahydro-5H-pyrazolo[4,3-c]pyridine-5-carboxamide]
> 80	25.2	CNC(=O)N1CCc2c(c(N3CCCc4cc(-c5cnn(C)c5)c(C(F)F)cc43)nn2C2CCN(C(=O)CCCCC#Cc3cccc4c3CN(C3CCC(=O)NC3=O)C4=O)CC2)C1 (stereo not shown) [P-093, 3-(7-(difluoromethyl)-6-(1-methyl-1H-pyrazol-4-yl)-3,4-dihydroquinolin-1(2H)-yl)-1-(1-(7-(2-(2,6-dioxopiperidin-3-yl)-1-oxoisoindolin-4-yl)hept-6-ynoyl)piperidin-4-yl)-N-methyl-1,4,6,7-tetrahydro-5H-pyrazolo[4,3-c]pyridine-5-carboxamide]

Reference: patent US20230073777A1, “CYCLIC-AMP RESPONSE ELEMENT BINDING PROTEIN (CBP) AND/OR ADENOVIRAL E1A BINDING PROTEIN OF 300 KDA (P300) DEGRADATION COMPOUNDS AND METHODS OF USE” (CULLGEN (SHANGHAI), INC., priority 2019, published 2023)
